This note sets out measurements from patent US9120798B2, “Amino-heteroaryl 7-hydroxy-spiropiperidine indolinyl antagonists of P2Y1 receptor” (priority 2012, dated 2015).

Assay [1] has as its target cloned human P2Y1 receptors (Homo sapiens (Human), UniProt P47900). Put plainly: Binding Assay B: Scintillation Proximity Assay (SPA) for P2Y1 binding. As to the method: Binding Assay B—Scintillation Proximity Assay (SPA) for P2Y1 Binding
A SPA membrane binding assay was used to identify inhibitors of [^33P] […] Binding reactions were performed in 384-well OptiPlates (PerkinElmer Life Sciences, Cat #6007299) in a volume of 50 μL containing ˜15 fmol of P2Y1 receptor (1.7 μg of total protein), 0.3 nM [^33P] […] Reactions were allowed to proceed to completion at room temperature for 1 hour followed by centrifugation of the plate for 5 min. About 40 μL of the aqueous solution was aspirated. Plates were sealed and the [^33P]
In general terms: SPA uses beads or plates that emit light when radiolabelled molecules are held near them.

The test system of assay [2] is human platelet rich plasma (PRP). Kind of assay: ADP induced platelet aggregation assay. It is filed as cell-based. To be noted: 5 min, read-out: PA IC50 (μM) @ 10 μM ADP. As to the method:
ADP Induced Platelet Aggregation Assay
The ability of P2Y1 antagonists covered in the present invention to inhibit platelet aggregation induced by 10 μM ADP was tested using human platelet rich plasma (PRP) as described in Platelet Protocols: Research and Clinical Laboratory Procedures (White, M. M. et al., Academic Press (1999)). Human blood was collected in 30 μM (final concentration in blood) argatroban (GSK) as the anticoagulant at a ratio of 1 ml per 9 ml of blood. The PRP was isolated by centrifugation at 170 g for 12 minutes. The platelet poor plasma (PPP) was used as the blank for optical aggregometry. Compounds of the present invention in DMSO solution was preincubated with 250 μl PRP at 37° C. for 1 minute with stirring speed of 1000 rpm. Aggregation was initiated by addition of 2.5 μl of 1 mM ADP (Chrono-log, Havertown, Pa.) for a final ADP concentration of 10 uM. Platelet aggregation was monitored using Optical Aggregometer (Chrono-log, Havertown, Pa.) and the area under the curve (AUC) at 5 minute was measured. IC50 was calculated using vehicle control as 0% inhibition.
The platelet aggregation assay measures the in vitro antiplatelet activity of a compound in platelet rich plasma. The assay is sensitive to plasma protein binding, and is believed to be a better predictor of actual in vivo activity.

Setting [3] is: SPA, 0.3 nM [33P] 2MeS-ADP, Cheng-Prusoff, read-out: P2Y1 Ki (nM) using binding assay B.

Structures are written as SMILES. Read-outs that look alike come from different tables or passages of the source.

cloned human P2Y1 receptors, sequence (P47900 whole entry): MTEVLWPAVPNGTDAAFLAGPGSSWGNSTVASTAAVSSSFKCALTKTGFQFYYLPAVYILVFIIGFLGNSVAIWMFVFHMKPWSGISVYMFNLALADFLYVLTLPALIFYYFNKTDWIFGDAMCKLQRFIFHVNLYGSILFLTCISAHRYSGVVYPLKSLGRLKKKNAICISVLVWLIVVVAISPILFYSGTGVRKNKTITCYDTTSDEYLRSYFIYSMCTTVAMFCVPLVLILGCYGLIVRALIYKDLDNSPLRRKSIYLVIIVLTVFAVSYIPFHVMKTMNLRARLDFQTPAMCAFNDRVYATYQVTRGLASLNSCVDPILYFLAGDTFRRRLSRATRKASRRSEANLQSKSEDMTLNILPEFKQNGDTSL

On to `CC(C)CN1CCc2nc(Nc3ccccc3N3CC4(CCN(CC(C)(C)C)CC4)c4c(Cl)ccc(O)c43)sc2C1` [Example 41, 4-Chloro-1-(2-(5-isobutyl-4,5,6,7-tetrahydrothiazolo[5,4-c]pyridin-2-ylamino)phenyl)-1′-neopentylspiro[indoline-3,4′-piperidin]-7-ol], for which the Ki in assay [1] amounted to 21 nM. The IC50 in assay [2] was 20.3 µM.

`CC(C)(C)CN1CCC2(CC1)CN(c1ccccc1Nc1ncc(-c3ccccc3)s1)c1c(O)ccc(Cl)c12` [Example 11, 4-Chloro-1′-neopentyl-1-(2-(5-phenylthiazol-2-ylamino)phenyl)spiro[indoline-3,4′-piperidin]-7-ol] displayed an inhibition constant Ki in assay [1] of 16 nM. The IC50 in assay [2] worked out at 3.7 µM.

In the case of `CC(C)(C)CN1CCC2(CC1)CN(c1ccccc1Nc1nnc(-c3ccc(OC(F)(F)F)cc3)s1)c1c(O)ccc(Cl)c12` [Example 26, 4-chloro-1′-neopentyl-1-(2-((5-(4-(trifluoromethoxy)phenyl)-1,3,4-thiadiazol-2-yl)amino)phenyl)spiro[indoline-3,4′-piperidin]-7-ol], the Ki in assay [1] (setting [3]) is 13 nM. In addition, the half-maximal inhibitory concentration (IC50) in assay [2] stood at 0.9 µM.

Consider `Cn1nc(C(C)(C)C)cc1-c1nnc(Nc2ccccc2N2CC3(CCN(CC(C)(C)C)CC3)c3c(Cl)ccc(O)c32)s1` [Example 18, 1-(2-((5-(3-(tert-butyl)-1-methyl-1H-pyrazol-5-yl)-1,3,4-thiadiazol-2-yl)amino)phenyl)-4-chloro-1′-neopentylspiro[indoline-3,4′-piperidin]-7-ol], for which the affinity in assay [1] corresponds to a Ki of 33 nM. For the same molecule, the IC50 in assay [2] stood at 1.8 µM.

In assay [1], `CC(C)(C)CN1CCC2(CC1)CN(c1ccccc1Nc1nnc(-c3ccc(F)cc3)s1)c1c(O)ccc(C(F)(F)F)c12` [Example 4, 1-(2-(5-(4-Fluorophenyl)-1,3,4-thiadiazol-2-ylamino)phenyl)-1′-neopentyl-4-(trifluoromethyl)spiro[indoline-3,4′-piperidin]-7-ol] showed a Ki of 15 nM. In addition, in assay [2], the IC50 came out at 2.2 µM.

In the case of `CC(C)(C)CN1CCC2(CC1)CN(c1ccccc1Nc1cc(-c3ccc(C(F)(F)F)cc3)on1)c1c(O)ccc(Cl)c12` [Example 37, 4-Chloro-1′-neopentyl-1-(2-(5-(4-(trifluoromethyl)phenyl)isoxazol-3-ylamino)phenyl)spiro[indoline-3,4′-piperidin]-7-ol], in assay [1], affinity was put at a Ki of 60 nM. For the same molecule, in assay [2], the IC50 was found to be 9.9 µM.

In assay [1], `CC(C)(C)CN1CCC2(CC1)CN(c1ccccc1Nc1nnc(-c3cccc(C(F)(F)F)c3)s1)c1c(O)ccc(Cl)c12` [Example 27, 4-chloro-1′-neopentyl-1-(2-((5-(3-(trifluoromethyl)phenyl)-1,3,4-thiadiazol-2-yl)amino)-phenyl)spiro[indoline-3,4′-piperidin]-7-ol] yielded an inhibitory constant (Ki) of 24 nM. In addition, the IC50 in assay [2] worked out at 3.2 µM.

For the molecule `CC(C)(C)CN1CCC2(CC1)CN(c1ccccc1Nc1nnc(-c3cc(Cl)cc(Cl)c3)s1)c1c(O)ccc(Cl)c12` [Example 23, 4-chloro-1-(2-((5-(3,5-dichloro-phenyl)-1,3,4-thiadiazol-2-yl)amino)phenyl)-1′-neopentylspiro[indoline-3,4′-piperidin]-7-ol], the affinity in assay [1] corresponds to a Ki of 19 nM. In addition, the IC50 in assay [2] amounted to 3.4 µM.

Regarding `CC(C)(C)CN1CCC2(CC1)CN(c1ccccc1Nc1nnc(-c3cnc4ccccc4n3)s1)c1c(O)ccc(Cl)c12` [Example 16, 4-chloro-1′-neopentyl-1-(2-((5-(quinoxalin-2-yl)-1,3,4-thiadiazol-2-yl)amino)phenyl)spiro[indoline-3,4′-piperidin]-7-ol], the inhibition constant Ki in assay [1] was 66 nM. For the same molecule, the IC50 in assay [2] is 17.7 µM.

Consider `CC(C)(C)CN1CCC2(CC1)CN(c1ccccc1Nc1nnc(-c3ccc(OC(F)(F)F)cc3)s1)c1c(O)c(F)cc(Cl)c12` [Example 32, 4-chloro-6-fluoro-1′-neopentyl-1-(2-((5-(4-(trifluoromethoxy)-phenyl)-1,3,4-thiadiazol-2-yl)amino)phenyl)spiro[indoline-3,4′-piperidin]-7-ol], for which, in assay [1], the affinity corresponds to a Ki of 69 nM. Moreover, the IC50 in assay [2] was found to be 15.6 µM.

Turning to `CC(C)(C)CN1CCC2(CC1)CN(c1ccccc1Nc1nnc(-c3ccc(C(F)(F)F)cn3)s1)c1c(O)ccc(Cl)c12` [Example 8, 4-Chloro-1′-neopentyl-1-(2-(5-(5-(trifluoromethyl)pyridin-2-yl)-1,3,4-thiadiazol-2-ylamino)phenyl)spiro[indoline-3,4′-piperidin]-7-ol], in assay [1], the inhibitory constant (Ki) was found to be 7 nM. Also, in assay [2], the IC50 is 1.5 µM.

Regarding `COC(=O)c1nnc(Nc2ccccc2N2CC3(CCN(CC(C)(C)C)CC3)c3c(Cl)ccc(O)c32)s1` [Example 17, methyl 5-((2-(4-chloro-7-hydroxy-1′-neopentylspiro[indoline-3,4′-piperidin]-1-yl)phenyl)-amino)-1,3,4-thiadiazole-2-carboxylate], the Ki in assay [1] is 48 nM. Further, in assay [2], the half-inhibitory concentration (IC50) was found to be 7.2 µM.

For `CC(C)(C)CN1CCC2(CC1)CN(c1ccccc1Nc1nnc(-c3ccccc3Cl)s1)c1c(O)ccc(Cl)c12` [Example 19, 4-chloro-1-(2-((5-(2-chloro-phenyl)-1,3,4-thiadiazol-2-yl)amino)phenyl)-1′-neopentylspiro[indoline-3,4′-piperidin]-7-ol], in assay [1] (setting [3]), the Ki came to 28 nM. In assay [2], the IC50 is 10.7 µM.

In assay [1], `CC(C)(C)CN1CCC2(CC1)CN(c1ccccc1Nc1nnc(-c3ccc(Cl)cc3)s1)c1c(O)ccc(F)c12` [Example 31, 1-(2-((5-(4-chlorophenyl)-1,3,4-thiadiazol-2-yl)amino)phenyl)-4-fluoro-1′-neopentylspiro-[indoline-3,4′-piperidin]-7-ol] came in with a Ki of 6 nM. Further, the IC50 in assay [2] was found to be 4.2 µM.

For `CC(C)(C)CN1CCC2(CC1)CN(c1ccccc1Nc1nnc(-c3ccc(Cl)c(Cl)c3)s1)c1c(O)ccc(Cl)c12` [Example 25, 4-chloro-1-(2-((5-(3,4-dichloro-phenyl)-1,3,4-thiadiazol-2-yl)amino)phenyl)-1′-neopentylspiro[indoline-3,4′-piperidin]-7-ol], the inhibition constant Ki in assay [1] was 19 nM. Moreover, the IC50 in assay [2] was determined as 3.7 µM.

In turn, `CC(C)(C)CN1CCC2(CC1)CN(c1ccccc1Nc1nnc(-c3ccc(C(F)(F)F)cc3)s1)c1c(O)ccc(C#N)c12` [Example 45, 7-Hydroxy-1′-neopentyl-1-(2-(5-(4-(trifluoromethyl)phenyl)-1,3,4-thiadiazol-2-ylamino)phenyl)spiro[indoline-3,4′-piperidine]-4-carbonitrile] had a Ki in assay [1] of 3 nM. Further, the IC50 in assay [2] was found to be 3.5 µM.

Regarding `Cc1cccc(-c2nnc(Nc3ccccc3N3CC4(CCN(CC(C)(C)C)CC4)c4c(Cl)ccc(O)c43)s2)c1` [Example 22, 4-chloro-1′-neopentyl-1-(2-((5-(m-tolyl)-1,3,4-thiadiazol-2-yl)amino)phenyl)spiro[indoline-3,4′-piperidin]-7-ol], the affinity in assay [1] corresponds to a Ki of 22 nM. For the same molecule, the IC50 in assay [2] was determined as 4 µM.

For the molecule `CC(C)(C)CN1CCC2(CC1)CN(c1ccccc1Nc1nc(C(C)(C)C)ns1)c1c(O)ccc(Cl)c12` [Example 36, 1-(2-(3-tert-Butyl-1,2,4-thiadiazol-5-ylamino)phenyl)-4-chloro-1′-neopentylspiro[indoline-3,4′-piperidin]-7-ol], the Ki in assay [1] was found to be 8 nM. Further, in assay [2], the concentration for half-maximal inhibition (IC50) came to 2.1 µM.

For the molecule `CC(C)(C)CN1CCC2(CC1)CN(c1ccccc1Nc1nnc(-c3ccc(OC(F)(F)F)cc3)s1)c1c(O)cc(F)c(F)c12` [Example 34, 4,5-difluoro-1′-neopentyl-1-(2-((5-(4-(trifluoromethoxy)-phenyl)-1,3,4-thiadiazol-2-yl)amino)phenyl)spiro[indoline-3,4′-piperidin]-7-ol], the Ki in assay [1] turned out to be 37 nM. For the same molecule, in assay [2], the half-inhibitory concentration (IC50) amounted to 9.9 µM.

Turning to `CC(C)(C)CN1CCC2(CC1)CN(c1ccccc1Nc1nnc(-c3ccccn3)s1)c1c(O)ccc(Cl)c12` [Example 28, 4-chloro-1′-neopentyl-1-(2-((5-(pyridin-2-yl)-1,3,4-thiadiazol-2-yl)amino)phenyl)-spiro[indoline-3,4′-piperidin]-7-ol], the Ki in assay [1] was determined as 6.8 nM. The IC50 in assay [2] was 5.8 µM.

In assay [1], `CC(C)(C)CN1CCC2(CC1)CN(c1ccccc1Nc1nnc(-c3ccccc3)s1)c1c(O)ccc(C(F)(F)F)c12` [Example 1, 1′-Neopentyl-1-(2-(5-phenyl-1,3,4-thiadiazol-2-ylamino)phenyl)-4-(trifluoromethyl)spiro[indoline-3,4′-piperidin]-7-ol] gave a Ki of 10 nM. In addition, the IC50 in assay [2] was determined as 1 µM.

As for `CC(C)(C)CN1CCC2(CC1)CN(c1ccccc1Nc1nc(C(C)(C)C)c(C#N)s1)c1c(O)ccc(Cl)c12` [Example 39, 4-tert-Butyl-2-(2-(4-chloro-7-hydroxy-1′-neopentylspiro[indoline-3,4′-piperidine]-1-yl)phenylamino)thiazole-5-carbonitrile], in assay [1], the affinity corresponds to a Ki of 9 nM. Also, the IC50 in assay [2] amounted to 4.9 µM.

By Ki is commonly meant a measure of affinity in units of concentration, obtained from inhibition or displacement. In general, IC50 refers to the concentration that inhibits the measured activity by half.
